Assay results published in patent US20140328929A1, “Method of Preventing Acute Graft-Versus-Host Disease using Oral Beclomethasone Dipropionate” (Soligenix, Inc., priority 2011, published 2014).
“Also recorded” adds a separate entry of the source.

Experiments:
acute GVHD = test: Double-blind, randomized placebo-controlled phase II study of prophylactic oral BDP: efficacy and exploratory analyses; assay type: in vivo, human
Source text: Patients who had allogeneic hematopoietic cell transplantation with marrow or growth factor-mobilized blood cells from HLA-A, -B, -C, -DRB1, and HLA-DQB1-allele matched or single-allele or antigen mismatched related or unrelated donors after a myeloablative conditioning regimen (>800 cGy total body irradiation [TBI] and cyclophosphamide or high-dose busulfan and cyclophosphamide) were eligible for this study. Patients who had transplantation with cord blood cells and those who were enrolled in studies that involved depletion of T cells from the graft or administration of T cell-depleting antibodies before transplantation were excluded. Patients with body weight <35 kg were also excluded because lower-dose formulations of the study drug were not available. All participants gave informed consent as documents with the use of forms approved by institutional review committees at the Fred Hutchinson Cancer Research Center and Hackensack University Medical Center.
(§1) All participants received a standard regimen of methotrexate and tacrolimus after transplantation as prophylaxis against acute GVHD.[10] Methotrexate was given at 15 mg/m^2 on day 1 after HCT and 10 mg/m^2 on days 3, 6 and 11. […] Administration of the study drug began at the start of the conditioning regimen and continued through day 75 after transplantation. Patients who were not able to ingest the study drug because of mucositis continued their participation in the study. […] Institutional standards were used for antibacterial and antifungal prophylaxis.
The primary pre specified endpoint of the study was development of acute GVHD with severity sufficient to require systemic immunosuppressive treatment on or before day 90 after transplantation such as: a) prednisone or its equivalent at a 1 mg/kg/day, b) systemic immunosuppressive agents other than those in the GVHD prophylactic regimen in lieu of high-dose glucocorticoids, or c) substitution of one calcineurin inhibitor for the other in the GVHD prophylactic regimen in order to treat overt GVHD. The following actions were not considered as an indication of acute GVHD with severity sufficient to require systemic immunosuppressive treatment: a) administration of high-dose glucocorticoids for indications other than acute GVHD, b) substitution of one calcineurin inhibitor for another in the GVHD prophylactic regimen in order to manage toxicity, c) increase in the dose of the calcineurin inhibitor originally prescribed for GVHD prophylaxis in order to suppress overt manifestations of acute GVHD. For purposes of the primary endpoint, extracorporeal photopheresis was considered as systemic immunosuppressive treatment, but administration of psoralen and UV irradiation was not.
In the assessment of the acute GVHD index score, parenteral nutrition was employed as a surrogate for oral caloric intake less than 40% of requirements.
For purposes of sample size estimation, we assumed that 60% of the participants in the placebo arm would require systemic glucocorticoid treatment for acute GVHD. […] Based on historical results from our center, we estimated a frequency of grade IIa GVHD at approximately 25%. […] An interim analysis was conducted after 69 patients were enrolled, with a plan to end the trial if the probability of rejecting the null hypothesis had been less than 33%. This criterion was not met, and the remaining patients were accrued as originally planned.
The primary endpoint was analyzed as a binomial outcome with differences evaluated by the unadjusted x^2 test with stratification according to donor type (related vs. unrelated) and pretransplant risk category (chronic myeloid leukemia in chronic phase, refractory anemia without excess blasts or other hematologic malignancy in remission vs. more advanced malignancy). Other endpoints were evaluated by x^2 test, Student's t-test, Wilcoxon rank sum test or log-rank test as appropriate, with no adjustment to the computed significance level to account for the interim analysis. […]

[1] = cited from earlier work
[2] = Same phase II study: assessment of safety (adverse outcomes, gastrointestinal adverse events, bacteremia, mucositis); assay type: in vivo
Method: as §1
The primary endpoint was analyzed as a binomial outcome with differences evaluated by the unadjusted x^2 test with stratification according to donor type (related vs. unrelated) and pretransplant risk category (chronic myeloid leukemia in chronic phase, refractory anemia without excess blasts or other hematologic malignancy in remission vs. more advanced malignancy). Other endpoints were evaluated by x^2 test, Student's t-test, Wilcoxon rank sum test or log-rank test as appropriate, with no adjustment to the computed significance level to account for the interim analysis. Results were analyzed with data available as of Sep. 15, 2010.
These included the hazards of cytomegalovirus and invasive yeast or mold infection, cGVHD, death without recurrent malignancy, recurrent malignancy, death from any cause, and the composite of death or recurrent malignancy. […] Other gastrointestinal adverse events occurred infrequently.
GVHD, bacteremia and recurrent malignancy were the most frequent serious adverse events. Other serious adverse events occurred at frequencies <5%. […] For this reason, we evaluated the distribution of all bacteremia episodes. Because participants took the study drug until day 75 after transplantation and then stopped, we included all bacteremia episodes that occurred before day 103. […] We observed a single episode of Enterococcus bacteremia among the 46 participants in the placebo arm, on day 15 after transplantation.
Time-to-first event analyses were used to evaluate the risks of bacteremia in the BDP arm compared to the placebo arm. Follow-up was censored at 103 days after HCT, 28 days after the end of study drug administration. The hazard ratios were 1.38 (95% CI 0.8-2.5) for any bacteremia, 1.32 (95% CI 0.7-2.5) for gram-positive bacteremia, and 5.24 (95% CI 0.7-41) for Enterococcus bacteremia.
For this reason, we evaluated the severity of mucositis in the two arms for the 118 patients who had evaluations by an oral medicine specialist on at least one occasion after transplantation at the FHCRC.

adrenal function = test: Cosyntropin stimulation test at approximately day 75 after transplantation; assay type: in vivo, human; settings: 26 of the 30 participants tested in the BDP arm; no systemic glucocorticoid treatment; about day 75
gastrointestinal GVHD = settings: oral BDP plus 10 day course of prednisone (1 mg/kg/day) with 7 day taper; grade II gastrointestinal GVHD; cited from earlier work
[3] = BDP >90% adherent group, N = 50
[4] = BDP patients with ≧90% adherence

SMILES: CCC(=O)OCC(=O)[C@@]1(OC(=O)CC)[C@@H](C)C[C@H]2[C@@H]3CCC4=CC(=O)C=C[C@]4(C)[C@@]3(Cl)[C@@H](O)C[C@@]21C [BDP, beclomethasone 17,21-dipropionate]
- Systemic treatment for GVHD among BDP patients with ≧90% adherence (acute GVHD; 50 BDP patients, 27 treated): 54%
- Cumulative Prednisone Dose through Day 75 Post HCT (acute GVHD; BDP 50-90% adherent, number 34): 2105 mg
- Mean of the Average Dose (prednisone) through Day 75 Post HCT (acute GVHD; BDP 50-90% adherent, number 34): 28.7 mg
- Cumulative Prednisone Dose through Day 75 Post HCT (acute GVHD; BDP <50% adherent, number 8): 2048 mg
- Mean of the Average Dose (prednisone) through Day 75 Post HCT (acute GVHD; BDP <50% adherent, number 8): 29.2 mg
- Overall Mortality, N (%) (acute GVHD; [3]): 7 (14) N (%)
- Relapse, N (%) (acute GVHD; [3]): 9 (18) N (%)
- Cumulative Prednisone Dose through Day 75 Post HCT (acute GVHD; BDP >90% adherent, number 50): 1145 mg
- Mean of the Average Dose (prednisone) through Day 75 Post HCT (acute GVHD; BDP >90% adherent, number 50): 15.4 mg
- BDP >90% adherent group requiring systemic treatment for acute GVHD before day 90, N (%) (acute GVHD; BDP N = 50, >90% adherent): 27 (54) N (%)
- Systemic treatment for acute GVHD before day 90, N (%) PRIMARY ENDPOINT (acute GVHD; BDP N = 92, Table 5): 62 (67) N (%)
- Gastrointestinal GVHD proven by biopsy, events (acute GVHD; BDP arm): 44
- Secondary systemic treatment for GVHD, events (acute GVHD; BDP arm): 8
- Topical treatment for acute GVHD, events (acute GVHD; BDP arm): 58
- Average weekly gut morbidity score (SD) (acute GVHD; BDP arm N = 92): 0.63 (0.36)
- Average weekly gut morbidity score after day 21 (SD) (acute GVHD; BDP arm N = 92): 0.47 (0.48)
- Average weekly liver morbidity score (SD) (acute GVHD; BDP arm N = 92): 0.11 (0.31)
- Average weekly overall morbidity score, mean (SD) (acute GVHD; BDP arm N = 92): 1.22 (0.53)
- Average weekly skin morbidity score (SD) (acute GVHD; BDP arm N = 92): 0.30 (0.42)
- Peak GVHD grade 0-1, N (%) (acute GVHD; BDP arm N = 92): 31 (34) N (%)
- Peak GVHD grade IIa, N (%) (acute GVHD; BDP arm N = 92): 41 (45) N (%)
- Peak GVHD grade IIb-IV, N (%) (acute GVHD; BDP arm N = 92): 20 (22) N (%)
- Peak overall morbidity score, mean (SD) (acute GVHD; BDP arm N = 92): 2.54 (0.62)
- Systemic treatment for acute GVHD before day 90, N (%) (acute GVHD; BDP arm N = 92, Table 2): 60 (65) N (%)
- Cumulative mg/kg prednisone-equivalent systemic glucocorticoid dose to day 75, mean (SD) (acute GVHD; BDP arm N = 92, for GVHD, not including steroid treatment for other indications): 33.1 (23.3) mg/kg
- Systemic treatment for acute GVHD, HR (acute GVHD; BDP arm compared to placebo arm, 95% CI 0.6-1.4): 0.92
- Participants given systemic glucocorticoid treatment for GVHD (acute GVHD; BDP arm, 60 participants): 65%
- Grades IIb-III GVHD (acute GVHD; BDP arm, peak OMI scores >20, seven of 36 participants): 19%
- Grades IIb-III GVHD (acute GVHD; BDP arm, peak OMI scores ≦20, nine of 43 participants): 21%
- Cumulative incidence of grades III-IV GVHD (acute GVHD; BDP arm, 95% CI 1%-12%): 7%
- Systemic treatment for acute GVHD, events (acute GVHD; BDP arm, withdrawal or recurrent malignancy as competing event): 61
- Incidence of relapse (acute GVHD; [4]): 18%
- Overall mortality (acute GVHD; [4]): 14%
- Secondary systemic treatment for GVHD, HR (acute GVHD; BDP vs placebo, 95% CI 0.2-1.9): 0.65
- Topical treatment for acute GVHD, HR (acute GVHD; BDP vs placebo, 95% CI 0.6-1.4): 0.89
- Gastrointestinal GVHD proven by biopsy, HR (acute GVHD; BDP vs placebo, 95% CI 0.7-2.2): 1.26
- Cumulative incidence of grades IIb-IV GVHD (acute GVHD; day 100 after transplantation, BDP arm, 95% CI 13%-30%): 22%
- Cumulative incidence of grades IIa-IV GVHD (acute GVHD; day 100 after transplantation, BDP arm, 95% CI 57%-76%): 66%
- Protein binding [1]: protein-bound
- Death from any cause, events ([2]; BDP arm): 22
- Death or recurrent malignancy, events ([2]; BDP arm): 29
- Death without recurrent malignancy, events ([2]; BDP arm): 10
- Death without recurrent malignancy, HR ([2]; BDP vs placebo, 95% CI 0.4-5.8): 1.60
- Death or recurrent malignancy, HR ([2]; BDP vs placebo, 95% CI 0.5-1.7): 0.93
- Death from any cause, HR ([2]; BDP vs placebo, 95% CI 0.5-2.0): 0.95
- Participants with Enterococcus bacteremia episodes among those who received total body irradiation ([2]; BDP, of the 61 participants (both arms) with total body irradiation): 9
- Participants with Enterococcus bacteremia episodes among those who received busulfan and cyclophosphamide ([2]; BDP, of the 77 participants (both arms)): 1
- CMV viremia or disease, HR ([2]; human, in vivo): 0.93
- CMV viremia or disease, events ([2]; human, in vivo): 23
- Chronic GVHD requiring systemic treatment, HR ([2]; human, in vivo): 1.05
- Chronic GVHD requiring systemic treatment, events ([2]; human, in vivo): 31
- Colitis, N (%) ([2]; human, in vivo): 0 (0) N (%)
- Enteritis, N (%) ([2]; human, in vivo): 0 (0) N (%)
- Episodes of Enterococcus bacteremia ([2]; human, in vivo): 12 episodes
- Episodes of Enterococcus bacteremia after day 57 ([2]; human, in vivo): 3 episodes
- Episodes of Enterococcus bacteremia before day 17 after transplantation ([2]; human, in vivo): 9 episodes
- Episodes of gram-negative bacteremia ([2]; human, in vivo): 15 episodes
- Esophagitis, N (%) ([2]; human, in vivo): 8 (9) N (%)
- GI hemorrhage, N (%) ([2]; human, in vivo): 2 (2) N (%)
- GI infection (any), N (%) ([2]; human, in vivo): 22 (24) N (%)
- GI infection: C. difficile, N (%) ([2]; human, in vivo): 16 (17) N (%)
- GI infection: CMV enteritis, N (%) ([2]; human, in vivo): 2 (2) N (%)
- GI infection: Other viral infection, N (%) ([2]; human, in vivo): 2 (2) N (%)
- GI infection: Other, N (%) ([2]; human, in vivo): 3 (3) N (%)
- GI infection: Yeast or mold, N (%) ([2]; human, in vivo): 0 (0) N (%)
- GI ulceration or erosion, N (%) ([2]; human, in vivo): 5 (5) N (%)
- Gastritis, N (%) ([2]; human, in vivo): 2 (2) N (%)
- Gastrointestinal ulceration or erosion diagnosed by endoscopy ([2]; human, in vivo): 5 participants
- Ileus, N (%) ([2]; human, in vivo): 1 (0) N (%)
- Invasive yeast or mold infection, HR ([2]; human, in vivo): 0.50
- Invasive yeast or mold infection, events ([2]; human, in vivo): 1
- Number of serious adverse events related to bacteremia ([2]; human, in vivo): 14
- Number of serious adverse events related to mucositis ([2]; human, in vivo): 5
- Participants diagnosed with gastrointestinal infection ([2]; human, in vivo): 24%
- Recurrent malignancy, HR ([2]; human, in vivo): 0.77
- Recurrent malignancy, events ([2]; human, in vivo): 19
- Typhlitis, N (%) ([2]; human, in vivo): 1 (1) N (%)
- Oral infection, N (%) ([2]; human, in vivo, po): 3 (3) N (%)
- Participants with Enterococcus bacteremia ([2]; of the 92 participants in the BDP arm, before day 103): 10 participants
- Abnormal adrenal function (adrenal function): 87%
- Efficacy for treatment of gastrointestinal GVHD in two previous randomized trials (gastrointestinal GVHD): more effective than prednisone alone; also recorded: effective
